Reference: patent US10668076B1, “Compositions and methods of targeting mutant K-Ras” (NantBio, Inc., priority 2011, dated 2020)

Test system: K-Ras wild type expressing 293 cells
Conditions: FIG. 6B
Protocol: SW480 and HT29 cells are both propagated at 37° C./5% CO2 and in RPMI+10% fetal bovine serum (FBS) and DMEM+10% FBS, respectively. Upon plating cells in microtiter plates, compounds are supplemented at various concentrations and viability is assessed within 24-72 hrs by manual or automated (Countess (Invitrogen)) trypan blue cytometry.

Which results are given for Cc1ccc(Nc2nc(N/N=C/c3cccc([N+](=O)[O-])c3O)nc(N3CCOCC3)n2)cc1 [A0383, 2-(hydroxynitroso)-6-[(1E)-(2-{4-[(4-methylphenyl)amino]-6-(morpholin-4-yl)-1,3,5-triazin-2-yl}hydrazin-1-ylidene)methyl]phenol]?
general toxicity (293 cells not overexpressing mutant K-Ras, dosages 50-100 µM): lack of general toxicity; IC50 (read-out: IC50 (cell death, unspecific toxicity), K-Ras wild type expressing 293 cells): > 100 µM
